Assay results taken from patent US10759751B2, “Substituted spirocyclohexanes as muscarinic M1 receptor and/or M4 receptor agonists” (Heptares Therapeutics Limited, priority 2016, dated 2020).

Experiments:
Assay type in all cases: cell-based
[1] = molecular target: T1, human muscarinic M2 receptor (Homo sapiens, UniProt P08172); assay: Alphascreen Surefire phospho-ERK1/2 functional assay, M2; conditions: for EC50: CHO cells stably expressing human M2, phospho-ERK1/2, read-out: pEC50 M2 (converted); for Emax: CHO, read-out: M2 % Emax cf. ACh
T1 sequence (P08172 1-466): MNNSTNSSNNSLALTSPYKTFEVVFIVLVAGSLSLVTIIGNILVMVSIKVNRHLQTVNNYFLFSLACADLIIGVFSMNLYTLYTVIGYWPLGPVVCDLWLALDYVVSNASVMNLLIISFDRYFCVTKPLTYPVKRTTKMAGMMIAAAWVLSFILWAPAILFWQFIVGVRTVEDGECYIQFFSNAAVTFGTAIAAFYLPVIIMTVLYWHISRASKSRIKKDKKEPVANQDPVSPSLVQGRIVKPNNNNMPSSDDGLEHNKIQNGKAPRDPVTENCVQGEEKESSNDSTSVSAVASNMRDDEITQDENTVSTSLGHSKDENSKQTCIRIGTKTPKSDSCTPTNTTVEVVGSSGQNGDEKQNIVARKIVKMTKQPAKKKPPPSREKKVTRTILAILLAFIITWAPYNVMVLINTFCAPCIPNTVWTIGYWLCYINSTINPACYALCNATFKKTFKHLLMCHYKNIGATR
Protocol: (§1) Functional assays were performed using the Alphascreen Surefire phospho-ERK1/2 assay (Crouch & Osmond, Comb. Chem. High Throughput Screen, 2008). ERK1/2 phosphorylation is a downstream consequence of both Gq/11 and Gi/o protein coupled receptor activation, making it highly suitable for the assessment of M1, M3 (Gq/11 coupled) and M2, M4 receptors (Gi/o coupled), rather than using different assay formats for different receptor subtypes. CHO cells stably expressing the human muscarinic M1, M2, M3 or M4 receptor were plated (25K/well) onto 96-well tissue culture plates in MEM-alpha+10% dialysed FBS. Once adhered, cells were serum-starved overnight. Agonist stimulation was performed by the addition of 5 μL agonist to the cells for 5 min (37° C.). Media was removed and 50 μL of lysis buffer added. After 15 min, a 4 μL sample was transferred to 384-well plate and 7 μL of detection mixture added. Plates were incubated for 2 h with gentle agitation in the dark and then read on a PHERAstar plate reader.
(§2) pEC50 and Emax figures were calculated from the resulting data for each receptor subtype.

[2] = molecular target: T2, human muscarinic M1 receptor (Homo sapiens, UniProt P11229); assay: Alphascreen Surefire phospho-ERK1/2 functional assay, M1; conditions: for EC50 / M1 % Emax cf. ACh: CHO cells stably expressing human M1; for EC50: phospho-ERK1/2, read-out: pEC50 M1 (converted); for Emax: CHO, read-out: M1 % Emax cf. ACh, CHO cells stably expressing human M1; for Emax / M1 % Emax cf. ACh: Emax relative to ACh
T2 sequence (P11229 1-460): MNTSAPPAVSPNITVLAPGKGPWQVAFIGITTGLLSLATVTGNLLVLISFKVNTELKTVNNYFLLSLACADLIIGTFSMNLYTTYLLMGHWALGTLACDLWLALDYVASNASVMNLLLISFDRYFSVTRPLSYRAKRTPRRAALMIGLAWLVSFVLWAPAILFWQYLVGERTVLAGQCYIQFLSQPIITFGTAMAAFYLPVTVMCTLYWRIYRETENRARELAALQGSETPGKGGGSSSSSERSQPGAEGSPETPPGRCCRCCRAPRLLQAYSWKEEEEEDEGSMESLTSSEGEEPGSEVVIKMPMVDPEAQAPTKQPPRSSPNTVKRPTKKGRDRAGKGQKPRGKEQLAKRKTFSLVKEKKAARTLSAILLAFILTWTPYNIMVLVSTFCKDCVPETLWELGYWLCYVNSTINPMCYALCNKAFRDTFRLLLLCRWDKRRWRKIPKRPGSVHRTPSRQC
Method in brief: (§3)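 CHO cells stably expressing human M1, M2, M3 or M4 receptor, serum-starved overnight, then stimulated with agonist for 5 min at 37 °C. Phospho-ERK1/2 quantified in lysates by AlphaScreen SureFire. pEC50 and Emax derived per subtype.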

[3] = molecular target: T3, human muscarinic M3 receptor (Homo sapiens, UniProt P20309); assay: Alphascreen Surefire phospho-ERK1/2 functional assay, M3; conditions: for EC50: CHO cells stably expressing human M3, phospho-ERK1/2, read-out: pEC50 M3 (converted); for Emax: CHO, read-out: M3 % Emax cf. ACh
T3 construct: expressed in transfected cells
T3 sequence (P20309 whole entry): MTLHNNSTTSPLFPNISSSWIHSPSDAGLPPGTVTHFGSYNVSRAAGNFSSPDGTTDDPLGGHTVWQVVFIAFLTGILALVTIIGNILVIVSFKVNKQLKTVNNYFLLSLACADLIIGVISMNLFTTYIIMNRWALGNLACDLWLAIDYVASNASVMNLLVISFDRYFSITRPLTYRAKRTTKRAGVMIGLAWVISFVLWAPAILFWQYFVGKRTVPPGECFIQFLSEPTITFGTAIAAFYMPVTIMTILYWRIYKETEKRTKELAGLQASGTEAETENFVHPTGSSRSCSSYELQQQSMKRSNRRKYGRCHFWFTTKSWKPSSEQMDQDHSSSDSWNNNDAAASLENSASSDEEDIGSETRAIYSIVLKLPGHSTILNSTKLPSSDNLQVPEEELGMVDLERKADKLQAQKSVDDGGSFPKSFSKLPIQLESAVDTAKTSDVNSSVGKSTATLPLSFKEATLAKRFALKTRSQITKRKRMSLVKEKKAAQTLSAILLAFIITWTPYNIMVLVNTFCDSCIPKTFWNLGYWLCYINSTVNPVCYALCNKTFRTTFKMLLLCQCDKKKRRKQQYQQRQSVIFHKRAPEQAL
Protocol: as §1, §2

[4] = molecular target: T4, human muscarinic M4 receptor (Homo sapiens, UniProt P08173); assay: Alphascreen Surefire phospho-ERK1/2 functional assay, M4; conditions: for EC50 / M4 % Emax cf. ACh: CHO cells stably expressing human M4; for EC50: phospho-ERK1/2, read-out: pEC50 M4 (converted); for Emax: CHO, read-out: M4 % Emax cf. ACh, CHO cells stably expressing human M4; for Emax / M4 % Emax cf. ACh: Emax relative to ACh
T4 construct: expressed in transfected cells
T4 sequence (P08173 1-479): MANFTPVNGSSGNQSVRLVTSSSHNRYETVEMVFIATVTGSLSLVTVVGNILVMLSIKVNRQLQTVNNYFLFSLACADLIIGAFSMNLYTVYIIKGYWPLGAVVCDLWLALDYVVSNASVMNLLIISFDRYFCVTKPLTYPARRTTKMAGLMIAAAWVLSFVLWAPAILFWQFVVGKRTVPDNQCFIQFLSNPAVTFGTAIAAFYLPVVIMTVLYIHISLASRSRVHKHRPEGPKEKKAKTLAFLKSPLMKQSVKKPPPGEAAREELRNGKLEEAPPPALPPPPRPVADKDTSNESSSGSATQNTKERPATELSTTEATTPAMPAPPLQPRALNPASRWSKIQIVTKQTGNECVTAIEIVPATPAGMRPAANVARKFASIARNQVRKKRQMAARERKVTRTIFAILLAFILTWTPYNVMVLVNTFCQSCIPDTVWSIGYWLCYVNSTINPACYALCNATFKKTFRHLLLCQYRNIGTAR
Method in brief: as §3

Row | SMILES | EC50 [1] | Emax [1] | EC50 [2] | Emax [2] | EC50 [3] | Emax [3] | EC50 [4] | Emax [4] | M1 % Emax cf. ACh [2] | M4 % Emax cf. ACh [4]
1 | CCOC(=O)N[C@H]1CCN(C2CCC3(CC2)C(=O)Nc2ccc(OC)cc23)C1 (single isomer, unassigned) [2-10 isomer 1] | > 20000 nM | 27% | 7.94 nM | 64% | > 20000 nM | 4% | > 20000 nM | 39% |  | 
2 | CCOC(=O)N[C@H]1CCN(C2CCC3(CC2)C(=O)Nc2ncc(Cl)cc23)C1 (single isomer, unassigned) [2-17 isomer 1] | > 20000 nM | 7% | 56.2 nM | 48% | > 20000 nM | 7% | > 20000 nM | 18% |  | 
3 | CCOC(=O)N(C)[C@@H]1CCN(C2CCC3(CC2)C(=O)Nc2ncccc23)C1 (single isomer, unassigned) [2-18 isomer 1] | > 20000 nM | 21% | 148 nM | 122% | > 20000 nM | 11% | 174 nM | 141% |  | 
4 | CCOC(=O)N1CCCN(C2CCC(C#N)(c3ccc(Br)cn3)CC2)CC1 (single isomer, unassigned) [3-17 Isomer 1] | > 20000 nM | 0% | 3.02 nM | 92% | > 20000 nM | 0% | 72.4 nM | 80% |  | 
5 | CCOC(=O)N1CCCN(C2CCC(C#N)(c3ccc(OC)cn3)CC2)CC1 (single isomer, unassigned) [3-19 Isomer 2] | > 20000 nM | 5% | 30.2 nM | 101% | > 20000 nM | 6% | 1740 nM | 39% |  | 
6 | CCOC(=O)N1CCCN(C2CCC(C#N)(c3ccc(OCC)cn3)CC2)CC1 (single isomer, unassigned) [3-20 Isomer 2] | > 20000 nM | 27% | 11.5 nM | 139% | > 20000 nM | 2% | > 20000 nM | 7% |  | 
7 | CC#CCOC(=O)N1CCCN(C2CCC(C#N)(c3ccncc3)CC2)CC1 (single isomer, unassigned) [3-30 Isomer 1] | > 20000 nM | 6% | 295 nM | 104% | > 20000 nM | 0% | 229 nM | 72% |  | 
8 | C#CCOC(=O)N1CCCN(C2CCC(C#N)(c3ccc(OC)cn3)CC2)CC1 (single isomer, unassigned) [3-31 Isomer 1] | > 20000 nM | 8% | 19.5 nM | 91% | > 20000 nM | 0% | 2570 nM | 52% |  | 
9 | CC#CCOC(=O)N1CCCN(C2CCC(C#N)(c3ccc(OC)cn3)CC2)CC1 (single isomer, unassigned) [3-32 Isomer 1] | > 20000 nM | 2% | 22.4 nM | 106% | > 20000 nM | 0% | 759 nM | 30% |  | 
10 | CCCC(=O)N1CCCN(C2CCC3(CC2)C(=O)Nc2ccccc23)CC1 (single isomer, unassigned) [4-3 isomer 2] | > 20000 nM | 3% | 794 nM | 57% | > 20000 nM | 2% | > 20000 nM | 20% |  | 
11 | CCOC(=O)N1CCCN(C2CCC3(CC2)C(=O)Nc2cc(C)ccc23)CC1 (single isomer, unassigned) [4-6 isomer 2] | > 15800 nM | 39% | 36.3 nM |  | > 15800 nM | 17% | 75.9 nM |  | 130% | 116%
12 | CCOC(=O)N1CCCN(C2CCC3(CC2)C(=O)Nc2ccc(C)cc23)CC1 (single isomer, unassigned) [4-7 isomer 1] | > 20000 nM | 16% | 44.7 nM | 115% | > 20000 nM | 20% | 5370 nM | 100% |  | 
13 | CCOC(=O)N1CCCN(C2CCC3(CC2)C(=O)Nc2cccc(C)c23)CC1 (single isomer, unassigned) [4-8 isomer 2] | > 20000 nM | 17% | 204 nM |  | > 20000 nM | 9% | 97.7 nM |  | 97% | 95%
14 | CCOC(=O)N1CCCN(C2CCC3(CC2)C(=O)Nc2cc(OC)ccc23)CC1 (single isomer, unassigned) [4-11 isomer 2] | > 20000 nM | 9% | 132 nM | 107% | > 20000 nM | 2% | 309 nM | 55% |  | 
15 | CCOC(=O)N1CCCN(C2CCC3(CC2)C(=O)Nc2ccc(OC)cc23)CC1 (single isomer, unassigned) [4-12 isomer 1] | > 20000 nM | 3% | 89.1 nM | 107% | > 20000 nM | 34% | > 20000 nM | 10% |  | 
16 | CCOC(=O)N1CCCN(C2CCC(c3nc(CC)c(C)[nH]3)CC2)CC1 (single isomer, unassigned) [5-1 Isomer 2] | > 20000 nM | 8% | 66.1 nM | 115% | > 20000 nM | 7% | 513 nM | 26% |  | 
17 | CCOC(=O)NCC1CCN(C2CCC(C#N)(c3ccccc3)CC2)CC1 (single isomer, unassigned) [6-2-Isomer 2] | > 20000 nM | 0% | 58.9 nM | 129% | > 20000 nM | 12% | 53.7 nM | 49% |  | 
18 | CCOC(=O)NCC1CCN(C2CCC3(CC2)C(=O)Nc2ccccc23)CC1 (single isomer, unassigned) [7-2 isomer 1] | > 20000 nM | 37% | 75.9 nM |  | > 20000 nM | 3% | 170 nM |  | 122% | 32%
19 | CCOC(=O)N1CC2(CCN(C3CCC(C#N)(c4ccccc4)CC3)CC2)C1 (single isomer, unassigned) [11-1 Isomer 2] | > 20000 nM | 1% | 275 nM | 105% | > 20000 nM | 3% | > 20000 nM | 19% |  | 
